Measured values reported in ChEMBL document CHEMBL1255548, “Novel bisphosphonate inhibitors of the human farnesyl pyrophosphate synthase” (Bioorg Med Chem Lett, 2010).

Assays:
[1] = target: T1, Farnesyl pyrophosphate synthase (Homo sapiens) (UniProt P14324); test: Inhibition of N-terminal His-tagged human FPPS expressed in Escherichia coli at 10 uM
T1 sequence (whole entry): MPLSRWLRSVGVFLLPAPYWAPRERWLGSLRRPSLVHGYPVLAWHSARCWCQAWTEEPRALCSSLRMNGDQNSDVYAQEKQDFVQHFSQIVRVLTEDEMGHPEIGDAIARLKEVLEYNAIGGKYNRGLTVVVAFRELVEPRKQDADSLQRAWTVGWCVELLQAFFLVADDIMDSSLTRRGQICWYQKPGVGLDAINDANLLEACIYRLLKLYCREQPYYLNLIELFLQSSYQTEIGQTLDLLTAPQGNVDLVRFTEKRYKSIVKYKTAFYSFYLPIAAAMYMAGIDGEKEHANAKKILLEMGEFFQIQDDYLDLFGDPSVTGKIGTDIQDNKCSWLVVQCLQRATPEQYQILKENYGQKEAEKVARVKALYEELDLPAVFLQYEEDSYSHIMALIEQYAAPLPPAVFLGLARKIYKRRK

[2] = target: T2, Farnesyl pyrophosphate synthase (Homo sapiens, UniProt P14324); test: Inhibition of N-terminal His-tagged human FPPS expressed in Escherichia coli
T2 sequence (P14324 whole entry): T1 sequence (whole entry)

[3] = target: T1, Farnesyl pyrophosphate synthase (Homo sapiens); test: Inhibition of N-terminal His-tagged human FPPS expressed in Escherichia coli at 1 uM

Row | inhibition [1] | IC50 [2] | inhibition [3] | SMILES
1 | 86% |  |  | Cc1noc(C)c1-c1cncc(CC(F)(P(=O)(O)O)P(=O)(O)O)c1
2 | 81% |  |  | O=P(O)(O)C(F)(Cc1cncc(-c2cccc3[nH]ncc23)c1)P(=O)(O)O
3 |  | 0.65 µM | > 50% | O=P(O)(O)C(F)(Cc1cncc(-c2cn[nH]c2)c1)P(=O)(O)O
4 |  | 0.7 µM | > 50% | O=P(O)(O)C(F)(Cc1cncc(-c2ccc3[nH]ncc3c2)c1)P(=O)(O)O
